Experimental data reported in patent publication US12138256B2, “Treatment of cardiopulmonary disorders” (Bayer Aktiengesellschaft, priority 2021, dated 2024).
Where “and” joins values, the source holds several entries; their conditions need not be identical. Equal values may be shown once.

Columns and labels:
[1] = tested on: thromboxane analog U46619 induced PAH in minipigs; experiment: Haemodynamics (PAP, BP) in the anesthetized thromboxane challenged PAH minipig after inhaled (nebulized) application (C-2.1); assay type: in vivo, Göttingen minipig; details: 10 μg/kg nominal dose, inhaled, n = 3
Experimental: Experiments were carried out in anesthetized Göttingen minipigs, anesthetized rats and conscious, telemetrically instrumented dogs. Acute pulmonary hypertension was induced for example by infusion of a thromboxane A2 analogon, by acute hypoxia treatment or hypoxia treatment over a number of weeks and/or by administration of monocrotaline. Test substances were applied via nebulization using the Nebutec® or Aeroneb® Pro nebulizer system, and/or by means of powder and/or solution applicators for experimental intratracheal administration (Liquid MicroSprayer®, Dry Powder Insufflator™, MicroSprayer®, Penn-Century Inc., Wyndmoor, PA, USA) or after solid nebulization inserted into the inspiration arm of the ventilation. Compounds were employed as solids or solutions depending on the molecular structure and the technical possibility depending on the experiment. The haemodynamic signals were recorded and evaluated by means of pressure transducers/amplifiers (Combitransducer B. Braun, Melsungen, Germany or CardioMEMS Inc., Atlanta, GA, USA) and Ponemah® or CardioMems® as data aquisition software. After long-term experiments (for example monocrotaline rat), it is also possible to carry out a histological evaluation.
Healthy Gottingen Minipigs® Ellegaard (Ellegaard, Denmark) of both sexes and having a weight of 2-6 kg were used. The animals were sedated by i.m. administration of about 25 mg/kg ketamine and about 10 mg/kg azaperone. Anaesthesia was initiated by i.v. administration of about 2 mg/kg ketamine and about 0.3 mg/kg midazolam. Maintenance of anaesthesia was by i.v. administration of about 7.5-30 mg/kg/h ketamine and about 1-4 mg/kg/h midazolam (rate of infusion 1-4 ml/kg/h) and about 150 μg/kg/h pancuronium bromide (for example Pancuronium-Actavis). After intubation, the animals were ventilated by the ventilator at a constant respiratory volume (10-12 ml/kg, 35 breaths/min; Avea®, Viasys Healthcare, USA, or Engstrom Carestation, GE Healthcare, Freiburg, Germany) such that an end-tidal CO2 concentration of about 5% was achieved. Ventilation was performed with room air, enriched with about 40% oxygen (normoxia). For the measurement of the haemodynamic parameters such as pulmonary arterial pressure (PAP), blood pressure (BP) and heart rate (HR), catheters were inserted into the carotid artery to measure the blood pressure, and a Swan-Ganz® catheter was introduced in a flow-directed manner via the jugular vein into the pulmonary artery. The haemodynamic signals were recorded and evaluated by means of pressure transducers (Combitransducer, B. Braun, Melsungen, Germany)/amplifiers and Ponemah® as data aquisition software.
After the instruments have been placed into the animals, continuous infusion of a thromboxane A2 analog was initiated to increase the pulmonary arterial pressure. […] D0400, or Cayman Chemical Company, cat. no. 16440), dissolved in physiological saline, were infused to achieve an increase of the mean pulmonary arterial pressure to values of over 25 mmHg. 30 minutes after the start of the infusion, a plateau was reached, and the experiment was started.
The test substances were administered as i.v. infusion or by inhalation. For the preparation of the solution for inhalation, the following procedure was adopted: For an animal having a weight of 4 kg, to prepare the stock solution (300 μg/kg), 1.2 mg of the test compound were weighed out and dissolved in a total volume of 3 ml (1% DMSO, 99% 0.2% strength citric acid solution, 1 N aqueous sodium hydroxide solution to adjust the pH to 8). The solution was then diluted to the concentration employed using 0.2% strength citric acid which had been adjusted to pH 8 beforehand with aqueous sodium hydroxide solution. In each test, 3 ml of the solution of test compound per 4 kg animal were nebulized in the inhalation arm of the respiratory circuit using the Aeroneb® Pro nebulizer system. The mean nebulization time was about 7 min from the start of the nebulization.

[2] = tested on: anesthetized PAH minipigs; experiment: PAH minipig model: intratracheal application of dry powder formulations and different hydrates (PennCentury insufflator); assay type: in vivo, Göttingen minipig; details: for BP (mean) / PAP(mean) / BP % changes vs. prevalues / PAP % changes vs. prevalues: 375 μg/kg i.t.; for BP (mean) / PAP(mean): absolute values; for BP % changes vs. prevalues / PAP % changes vs. prevalues: each animal
From the text: After characterization of the effects of comparative example 11 after nebulization of compound solutions, in a further step the effects of crystalline forms of comparative example 11, e.g. sesquihydrate, e.g. example 6e on PAP and BP after inhaled application of different dry powder lactose formulations (table C2.1.8) were studied in anesthetized PAH minipigs.
As reference pure Lactose vehicle was applied in the beginning of each experiment.

CC#CCC(C)[C@H](O)/C=C/[C@@H]1[C@H]2C/C(=C/CCCC(=O)O)C[C@H]2C[C@H]1O (stereo partly shown) [Ventavis ®]
PAP % changes vs prevalue, mean ([1]; time 0 min): 0%
PAP % changes vs prevalue, mean ([1]; time 10 min): −30.3%
PAP % changes vs prevalue, mean ([1]; time 20 min): −20.7%
PAP % changes vs prevalue, mean ([1]; time 30 min): −6.9%
PAP % changes vs prevalue, mean ([1]; time 40 min): 1.7%
PAP % changes vs prevalue, mean ([1]; time 50 min): 4.9%

O.O=C(O)c1ccc(CCN(CCc2ccccc2OCc2ccc(-c3ccc(C(F)(F)F)cc3)cc2Cl)[C@H]2CCCc3nc(C(=O)O)ccc32)cc1.O=C(O)c1ccc(CCN(CCc2ccccc2OCc2ccc(-c3ccc(C(F)(F)F)cc3)cc2Cl)[C@H]2CCCc3nc(C(=O)O)ccc32)cc1 [example 6a, (5S)-{[2-(4-Carboxyphenyl)ethyl][2-(2-{[3-chloro-4′-(trifluoromethyl)biphenyl-4-yl]methoxy}phenyl)-ethyl]amino}-5,6,7,8-tetrahydroquinoline-2-carboxylic acid semihydrate]
efficacy with regard to PAP reduction as well as systemic BP reduction ([2]; 1.5 mg/4 kg (=375 μg/kg) intratracheally, micronized): comparable efficacy
BP (mean) ([2]; time 0): 101 mmHg and 85 mmHg
PAP(mean) ([2]; time 0): 39.6 mmHg and 40.8 mmHg and 38.5 mmHg
BP (mean) ([2]; time 10): 103 mmHg and 83 mmHg and 79 mmHg
PAP(mean) ([2]; time 10): 40.2 mmHg and 41.1 mmHg
BP (mean) ([2]; time 20): 101 mmHg and 83 mmHg and 84 mmHg
PAP(mean) ([2]; time 20): 40.4 mmHg and 41.3 mmHg
BP (mean) ([2]; time 30): 100 mmHg and 81 mmHg and 88 mmHg
PAP(mean) ([2]; time 30): 40.2 mmHg and 41.3 mmHg
BP (mean) ([2]; time 40): 98 mmHg and 81 mmHg and 90 mmHg
PAP(mean) ([2]; time 40): 40.4 mmHg and 41.8 mmHg and 41.0 mmHg
BP (mean) ([2]; time 50): 99 mmHg and 78 mmHg and 89 mmHg
PAP(mean) ([2]; time 50): 40.7 mmHg and 41.7 mmHg and 40.9 mmHg
BP % changes vs. prevalues ([2]; time 50): 99.6% and 98.4% and 100.6%
PAP % changes vs. prevalues ([2]; time 50): 99.3% and 98.7% and 98.9%
BP (mean) ([2]; time 60): 100 mmHg and 79 mmHg and 86 mmHg
PAP(mean) ([2]; time 60): 41.2 mmHg and 42.0 mmHg and 40.9 mmHg
BP % changes vs. prevalues ([2]; time 60): 100.6% and 99.7% and 97.2%
PAP % changes vs. prevalues ([2]; time 60): 100.7% and 99.4% and 99.2%
BP (mean) ([2]; time 70): 102 mmHg and 78 mmHg and 87 mmHg
PAP(mean) ([2]; time 70): 38.8 mmHg and 40.6 mmHg and 40.1 mmHg
BP % changes vs. prevalues ([2]; time 70): 102.6% and 98.4% (2×)
PAP % changes vs. prevalues ([2]; time 70): 94.7% and 96.1% and 97.0%
BP (mean) ([2]; time 80): 102 mmHg and 79 mmHg and 90 mmHg
PAP(mean) ([2]; time 80): 34.1 mmHg and 39.9 mmHg and 37.7 mmHg
BP % changes vs. prevalues ([2]; time 80): 102.6% and 99.7% and 101.8%
PAP % changes vs. prevalues ([2]; time 80): 83.4% and 94.5% and 91.2%
BP (mean) ([2]; time 90): 101 mmHg and 81 mmHg and 92 mmHg
PAP(mean) ([2]; time 90): 30.1 mmHg and 37.7 mmHg and 36.6 mmHg
BP % changes vs. prevalues ([2]; time 90): 101.6% and 102.2% and 104.0%
PAP % changes vs. prevalues ([2]; time 90): 73.4% and 89.2% and 88.7%
BP (mean) ([2]; time 100): 100 mmHg and 80 mmHg and 95 mmHg
PAP(mean) ([2]; time 100): 28.3 mmHg and 35.9 mmHg and 35.0 mmHg
BP % changes vs. prevalues ([2]; time 100): 100.6% and 101.0% and 107.4%
PAP % changes vs. prevalues ([2]; time 100): 69.0% and 85.0% and 84.7%
BP (mean) ([2]; time 110): 99 mmHg and 79 mmHg
PAP(mean) ([2]; time 110): 27.2 mmHg and 34.8 mmHg and 34.0 mmHg
BP % changes vs. prevalues ([2]; time 110): 99.6% and 99.7% and 111.9%
PAP % changes vs. prevalues ([2]; time 110): 66.5% and 82.4% and 82.1%
BP (mean) ([2]; time 120): 99 mmHg and 79 mmHg and 96 mmHg
PAP(mean) ([2]; time 120): 26.4 mmHg and 34.1 mmHg and 32.9 mmHg
BP % changes vs. prevalues ([2]; time 120): 99.6% and 99.7% and 108.6%
PAP % changes vs. prevalues ([2]; time 120): 64.4% and 80.8% and 79.7%
BP (mean) ([2]; time 130): 98 mmHg and 81 mmHg and 97 mmHg
PAP(mean) ([2]; time 130): 25.7 mmHg and 33.7 mmHg and 31.7 mmHg
BP % changes vs. prevalues ([2]; time 130): 98.6% and 102.2% and 109.7%
PAP % changes vs. prevalues ([2]; time 130): 62.8% and 79.9% and 76.7%
BP (mean) ([2]; time 140): 99 mmHg and 82 mmHg and 98 mmHg
PAP(mean) ([2]; time 140): 25.3 mmHg and 33.2 mmHg and 31.3 mmHg
BP % changes vs. prevalues ([2]; time 140): 99.6% and 103.5% and 110.8%
PAP % changes vs. prevalues ([2]; time 140): 61.8% and 78.7% and 75.7%
BP (mean) ([2]; time 150): 97 mmHg and 82 mmHg
PAP(mean) ([2]; time 150): 25.0 mmHg and 32.9 mmHg and 30.7 mmHg
BP % changes vs. prevalues ([2]; time 150): 97.6% and 103.5% and 109.7%
PAP % changes vs. prevalues ([2]; time 150): 60.9% and 78.0% and 74.3%
PAP(mean) ([2]; time 160): 24.5 mmHg and 32.5 mmHg and 30.2 mmHg
BP % changes vs. prevalues ([2]; time 160): 96.6% and 102.2% and 109.7%
PAP % changes vs. prevalues ([2]; time 160): 59.9% and 77.1% and 73.1%
BP % changes vs. prevalues ([2]; time 170): 95.6% and 99.7% and 107.4%
PAP % changes vs. prevalues ([2]; time 170): 58.6% and 76.7% and 72.3%
BP % changes vs. prevalues ([2]; time 180): 94.6% and 99.7% and 106.3%
PAP % changes vs. prevalues ([2]; time 180): 58.0% and 75.4% and 71.8%
BP % changes vs. prevalues ([2]; time 190): 94.6% and 108.5% and 105.2%
PAP % changes vs. prevalues ([2]; time 190): 59.5% and 78.4% and 70.7%
BP % changes vs. prevalues ([2]; time 200): 92.6% and 107.3% and 104.0%
PAP % changes vs. prevalues ([2]; time 200): 60.5% and 76.8% and 71.1%
BP % changes vs. prevalues ([2]; time 210): 90.6% and 102.2% and 102.9%
PAP % changes vs. prevalues ([2]; time 210): 60.6%
BP (mean) ([2]; time −10): 99 mmHg and 85 mmHg and 86 mmHg
PAP(mean) ([2]; time −10): 38.7 mmHg and 40.6 mmHg
